Test results published in patent US11535621B2, “Heterobicyclic amides as inhibitors of CD38” (Ribon Therapeutics, Inc., priority 2019, dated 2022).

What follows are compounds tested against Human CD38 (Homo sapiens (Human), UniProt P28907) (assay: CD38 enzyme assay). Details: 2 nM CD38, NAD+ substrate, absorbance at 405 nm.
Type: biochemical
In short: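 IC50 values come from fitting % inhibition against compound concentration with a 4-parameter logistic, or a 3-parameter fit with top/bottom fixed at 100/0 or Hill at 1. Inhibition is scaled between DMSO wells and positive-control wells treated with a quinolinone CD38 inhibitor.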

Chain of Human CD38 (P28907 whole entry): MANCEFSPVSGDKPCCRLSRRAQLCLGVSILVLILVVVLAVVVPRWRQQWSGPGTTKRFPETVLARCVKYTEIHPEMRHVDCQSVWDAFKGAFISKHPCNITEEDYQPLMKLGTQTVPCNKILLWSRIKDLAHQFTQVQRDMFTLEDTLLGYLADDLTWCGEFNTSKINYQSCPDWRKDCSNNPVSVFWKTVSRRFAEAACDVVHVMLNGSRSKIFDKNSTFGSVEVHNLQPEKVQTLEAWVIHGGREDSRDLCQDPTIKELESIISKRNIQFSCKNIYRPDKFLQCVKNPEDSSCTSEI

Structure (SMILES)	IC50
CC1(F)CN([C@H]2CC[C@@H](NC(=O)c3nc(-n4ccnc4)nc4cn[nH]c34)CC2)C1 [Example 256, N-((1s,4s)-4-(3-fluoro-3-methylazetidin-1-yl)cyclohexyl)-5-(1H-imidazol-1-yl)-1H-pyrazolo[4,3-d]pyrimidine-7-carboxamide]	100 to 1000 nM
O=C(NCc1ccccc1)c1nc(-n2ccnc2)nc2cc[nH]c12 [Example 79, N-Benzyl-2-(1H-imidazol-1-yl)-5H-pyrrolo[3,2-d]pyrimidine-4-carboxamide]	100 to 1000 nM
O=C(NCc1c(F)cccc1C(F)(F)F)c1cc(-n2ccnc2)cc2cc[nH]c12 [Example 5, N-(2-Fluoro-6-(trifluoromethyl)benzyl)-5-(1H-imidazol-1-yl)-1H-indole-7-carboxamide]	100 to 1000 nM
COCCO[C@H]1CC[C@H](NC(=O)c2nc(-c3cncs3)cc3cn[nH]c23)CC1 [Example 21, N-((1r,4r)-4-(2-Methoxyethoxy)cyclohexyl)-5-(thiazol-5-yl)-1H-pyrazolo[3,4-c]pyridine-7-carboxamide]	100 to 1000 nM
CN(C)C(=O)CO[C@H]1CC[C@H](NC(=O)c2nc(-n3ccnc3)nc3cc[nH]c23)CC1 [Example 146]	10 to 100 nM
O=C(N[C@H]1CC[C@@](O)(C(F)(F)F)CC1)c1nc(-n2ccnc2)nc2cc[nH]c12 [Example 120b, N-((1r,4r)-4-hydroxy-4-(trifluoromethyl)cyclohexyl)-2-(1H-imidazol-1-yl)-5H-pyrrolo[3,2-d]pyrimidine-4-carboxamide]	10 to 100 nM
CN(C)CCO[C@H]1CC[C@H](NC(=O)c2nc(-n3ccnc3)nc3cc[nH]c23)CC1 [Example 72, N-((1r,4r)-4-(2-(Dimethylamino)ethoxy)cyclohexyl)-2-(1H-imidazol-1-yl)-5H-pyrrolo[3,2-d]pyrimidine-4-carboxamide]	10 to 100 nM
O=C(N[C@H]1CC[C@H](CNCC(F)(F)F)CC1)c1nc(-n2ccnc2)nc2cn[nH]c12 [Example 271]	10 to 100 nM
CO[C@]1(C)CC[C@H](NC(=O)c2nc(-n3ccnc3)nc3cc[nH]c23)CC1 [Example 128b, 2-(1H-imidazol-1-yl)-N-((1s,4s)-4-methoxy-4-methylcyclohexyl)-5H-pyrrolo[3,2-d]pyrimidine-4-carboxamide]	10 to 100 nM
N#C[C@H]1CC[C@H](CNC(=O)c2nc(-n3ccnc3)nc3cc[nH]c23)CC1 [Example 166]	10 to 100 nM
CC(C)(N[C@H]1CC[C@H](NC(=O)c2nc(-n3ccnc3)cc3cn[nH]c23)CC1)C(F)F [Example 253, N-((1r,4r)-4-((1,1-difluoro-2-methylpropan-2-yl)amino)cyclohexyl)-5-(1H-imidazol-1-yl)-1H-pyrazolo[3,4-c]pyridine-7-carboxamide]	10 to 100 nM
CC(F)(F)CN[C@H]1CC[C@@H](NC(=O)c2nc(-n3ccnc3)cc3cn[nH]c23)CC1 [Example 194, N-((1s,4s)-4-((2,2-difluoropropyl)amino)cyclohexyl)-5-(1H-imidazol-1-yl)-1H-pyrazolo[3,4-c]pyridine-7-carboxamide]	100 to 1000 nM
CC(F)(F)CN[C@H]1CC[C@H](NC(=O)c2nc(-n3ccnc3)nc3cn[nH]c23)CC1 [Example 244, N-((1r,4r)-4-((2,2-difluoropropyl)amino)cyclohexyl)-5-(1H-imidazol-1-yl)-1H-pyrazolo[4,3-d]pyrimidine-7-carboxamide]	10 to 100 nM
O=C(NC1CCNC1)c1nc(-n2ccnc2)nc2cc[nH]c12 (centres unmarked) [Example 73, 2-(1H-Imidazol-1-yl)-N-(pyrrolidin-3-yl)-5H-pyrrolo[3,2-d]pyrimidine-4-carboxamide]	100 to 1000 nM
COCCO[C@H]1CC[C@H](NC(=O)c2nc(-n3ccnc3)nc3ncsc23)CC1 [Example 25, 5-(1H-Imidazol-1-yl)-N-((1r,4r)-4-(2-methoxyethoxy)cyclohexyl)thiazolo[4,5-d]pyrimidine-7-carboxamide]	100 to 1000 nM
CC(=O)NC[C@H]1CC[C@H](NC(=O)c2nc(-n3ccnc3)nc3cn[nH]c23)CC1 [Example 243, N-((1r,4r)-4-(acetamidomethyl)cyclohexyl)-5-(1H-imidazol-1-yl)-1H-pyrazolo[4,3-d]pyrimidine-7-carboxamide]	10 to 100 nM
O=C(NCc1c(F)cccc1C(F)(F)F)c1nc(-n2ccnc2)nc2ccsc12 [Example 49, N-(2-Fluoro-6-(trifluoromethyl)benzyl)-2-(1H-imidazol-1-yl)thieno[3,2-d]pyrimidine-4-carboxamide]	10 to 100 nM
O=C(N[C@H]1CCCOC1)c1nc(-n2ccnc2)nc2cc[nH]c12 (single isomer, unassigned) [Example 28a]	10 to 100 nM
CC1(F)CN([C@H]2CC[C@H](NC(=O)c3nc(-n4ccnc4)nc4cn[nH]c34)CC2)C1 [Example 257, N-((1r,4r)-4-(3-fluoro-3-methylazetidin-1-yl)cyclohexyl)-5-(1H-imidazol-1-yl)-1H-pyrazolo[4,3-d]pyrimidine-7-carboxamide]	10 to 100 nM
O=C(N[C@H]1CC[C@H](NC2COC2)CC1)c1nc(-n2ccnc2)cc2cn[nH]c12 [Example 233, 5-(1H-imidazol-1-yl)-N-((1r,4r)-4-(oxetan-3-ylamino)cyclohexyl)-1H-pyrazolo[3,4-c]pyridine-7-carboxamide]	10 to 100 nM
O=C(NC1(c2ccccc2)CC1)c1nc(-n2ccnc2)nc2cc[nH]c12 [Example 164]	10 to 100 nM
COC(C)(C)[C@H]1CC[C@H](NC(=O)c2nc(-n3ccnc3)nc3cc[nH]c23)CC1 [Example 187]	10 to 100 nM
CC1(C#N)CN([C@H]2CC[C@H](NC(=O)c3nc(-n4ccnc4)cc4cn[nH]c34)CC2)C1 [Example 258, N-((1r,4r)-4-(3-cyano-3-methylazetidin-1-yl)cyclohexyl)-5-(1H-imidazol-1-yl)-1H-pyrazolo[3,4-c]pyridine-7-carboxamide]	10 to 100 nM
O=C(N[C@H]1CC[C@H](NC2COC2)CC1)c1nc(-n2ccnc2)nc2cc[nH]c12 [Example 216, 2-(1H-imidazol-1-yl)-N-((1r,4r)-4-(oxetan-3-ylamino)cyclohexyl)-5H-pyrrolo[3,2-d]pyrimidine-4-carboxamide]	10 to 100 nM
CN(C)C(=O)CO[C@H]1CC[C@H](NC(=O)c2nc(-n3ccnc3)cc3cn[nH]c23)CC1 [Example 202, N-((1r,4r)-4-(2-(dimethylamino)-2-oxoethoxy)cyclohexyl)-5-(1H-imidazol-1-yl)-1H-pyrazolo[3,4-c]pyridine-7-carboxamide]	10 to 100 nM
Cc1cc2cc(-c3cncs3)cc(C(=O)NCc3c(F)cccc3C(F)(F)F)c2[nH]1 [Example 11, N-(2-Fluoro-6-(trifluoromethyl)benzyl)-2-methyl-5-(thiazol-5-yl)-1H-indole-7-carboxamide]	10 to 100 nM

Further lines, results first:

IC50	Structure (SMILES)
< 10 nM	O=C(Nc1cn[nH]c1)c1nc(-n2ccnc2)nc2cc[nH]c12 [Example 98, 2-(1H-Imidazol-1-yl)-N-(1H-pyrazol-4-yl)-5H-pyrrolo[3,2-d]pyrimidine-4-carboxamide]
< 10 nM	CN1CCN(c2ccc(NC(=O)c3nc(-n4ccnc4)nc4cc[nH]c34)cn2)CC1 [Example 154]
10 to 100 nM	CC(=O)N1CCC(NC(=O)c2nc(-n3ccnc3)nc3cc[nH]c23)CC1 [Example 64, N-(1-Acetylpiperidin-4-yl)-2-(1H-imidazol-1-yl)-5H-pyrrolo[3,2-d]pyrimidine-4-carboxamide]
10 to 100 nM	COCCO[C@H]1CC[C@H](NC(=O)c2nc(-n3cncc3C)nc3cc[nH]c23)CC1 [Example 36, N-((1r,4r)-4-(2-Methoxyethoxy)cyclohexyl)-2-(5-methyl-1H-imidazol-1-yl)-5H-pyrrolo[3,2-d]pyrimidine-4-carboxamide]
10 to 100 nM	O=C(N[C@H]1CC[C@H](N2CCOCC2)CC1)c1nc(-n2ccnc2)nc2cc[nH]c12 [Example 155]
10 to 100 nM	CN(CC(F)(F)F)[C@H]1CC[C@H](NC(=O)c2nc(-n3ccnc3)nc3cc[nH]c23)CC1 [Example 112, 2-(1H-imidazol-1-yl)-N-((1r,4r)-4-(methyl(2,2,2-trifluoroethyl)amino)cyclohexyl)-5H-pyrrolo[3,2-d]pyrimidine-4-carboxamide]
10 to 100 nM	COCCO[C@H]1CC[C@H](NC(=O)c2nc(-n3ccnc3)nc3cc(C)[nH]c23)CC1 [Example 108, 2-(1H-imidazol-1-yl)-N-((1r,4r)-4-(2-methoxyethoxy)cyclohexyl)-6-methyl-5H-pyrrolo[3,2-d]pyrimidine-4-carboxamide]
10 to 100 nM	O=C(N[C@H]1CC[C@H](N2CCC(F)(F)C2)CC1)c1nc(-n2ccnc2)cc2cn[nH]c12 [Example 232, N-((1r,4r)-4-(3,3-difluoropyrrolidin-1-yl)cyclohexyl)-5-(1H-imidazol-1-yl)-1H-pyrazolo[3,4-c]pyridine-7-carboxamide]
< 10 nM	O=C(Nc1cccnc1)c1nc(-n2ccnc2)nc2cc[nH]c12 [Example 83, 2-(1H-Imidazol-1-yl)-N-(pyridin-3-yl)-5H-pyrrolo[3,2-d]pyrimidine-4-carboxamide]
< 10 nM	O=C(Nc1ccccc1Cl)c1nc(-n2ccnc2)nc2cc[nH]c12 [Example 89, N-(2-Chlorophenyl)-2-(1H-imidazol-1-yl)-5H-pyrrolo[3,2-d]pyrimidine-4-carboxamide]
< 10 nM	N#C[C@H]1CC[C@H](NC(=O)c2nc(-n3ccnc3)nc3cc[nH]c23)CC1 [Example 148]
< 10 nM	CC(C)(C#N)c1ccc(NC(=O)c2nc(-n3ccnc3)nc3cc[nH]c23)cc1 [Example 118, N-[4-(1-cyano-1-methyl-ethyl)phenyl]-2-imidazol-1-yl-5H-pyrrolo[3,2-d]pyrimidine-4-carboxamide]
< 10 nM	O=C(NC1CCCCCC1)c1nc(-n2ccnc2)nc2cc[nH]c12 [Example 92, N-Cycloheptyl-2-(1H-imidazol-1-yl)-5H-pyrrolo[3,2-d]pyrimidine-4-carboxamide]
< 10 nM	O=C(N[C@H]1CC[C@H](C2(O)CC2)CC1)c1nc(-n2ccnc2)cc2cn[nH]c12 [Example 228, N-((1r,4r)-4-(1-hydroxycyclopropyl)cyclohexyl)-5-(1H-imidazol-1-yl)-1H-pyrazolo[3,4-c]pyridine-7-carboxamide]
< 10 nM	CO[C@H]1CC[C@H](NC(=O)c2nc(-n3ccnc3)nc3cn[nH]c23)CC1 [Example 183]
